Data taken from US8778941B2, “TRPM8 antagonists and their use in treatments” (AMGEN Inc., priority 2011, dated 2014).

Biological target: T1, human TRPM8 (Homo sapiens, UniProt Q7Z2W7)
T1 construct: expressed in transfected cells; host or cells: Chinese hamster ovary (CHO) cells, T-REx tetracycline-inducible expression system (Invitrogen), co-transfected with pcDNA3.1 jellyfish aequorin
Test: Luminescence readout assay for measuring intracellular calcium (aequorin), hTRPM8 antagonism
Type: cell-based
Conditions: CHO cell line expressing human TRPM8 and aequorin; activation by icilin, L-menthol or cold buffer (table does not say which)
Experimental: Luminescence Readout Assay for Measuring Intracellular Calcium.
A stable Chinese hamster ovary cell line expressing human TRPM8 was generated using tetracycline inducible T-REx™ expression system from Invitrogen, Inc. (Carlsbad, Calif.). […] Twenty four hours before the assay, cells were seeded in 96-well plates and TRPM8 expression was induced with 0.5 μg/mL tetracycline. […] Potential antagonists were added 2.5 min prior to the addition of agonist, […], 100 µM L-menthol, or 1 min prior to the addition of cold buffer (<10° C.). The luminescence was measured by a CCD camera based FLASH-luminometer built by Amgen, Inc. A cooling device attached to FLASH luminometer was used for cold activation.

T1 sequence (Q7Z2W7 whole entry): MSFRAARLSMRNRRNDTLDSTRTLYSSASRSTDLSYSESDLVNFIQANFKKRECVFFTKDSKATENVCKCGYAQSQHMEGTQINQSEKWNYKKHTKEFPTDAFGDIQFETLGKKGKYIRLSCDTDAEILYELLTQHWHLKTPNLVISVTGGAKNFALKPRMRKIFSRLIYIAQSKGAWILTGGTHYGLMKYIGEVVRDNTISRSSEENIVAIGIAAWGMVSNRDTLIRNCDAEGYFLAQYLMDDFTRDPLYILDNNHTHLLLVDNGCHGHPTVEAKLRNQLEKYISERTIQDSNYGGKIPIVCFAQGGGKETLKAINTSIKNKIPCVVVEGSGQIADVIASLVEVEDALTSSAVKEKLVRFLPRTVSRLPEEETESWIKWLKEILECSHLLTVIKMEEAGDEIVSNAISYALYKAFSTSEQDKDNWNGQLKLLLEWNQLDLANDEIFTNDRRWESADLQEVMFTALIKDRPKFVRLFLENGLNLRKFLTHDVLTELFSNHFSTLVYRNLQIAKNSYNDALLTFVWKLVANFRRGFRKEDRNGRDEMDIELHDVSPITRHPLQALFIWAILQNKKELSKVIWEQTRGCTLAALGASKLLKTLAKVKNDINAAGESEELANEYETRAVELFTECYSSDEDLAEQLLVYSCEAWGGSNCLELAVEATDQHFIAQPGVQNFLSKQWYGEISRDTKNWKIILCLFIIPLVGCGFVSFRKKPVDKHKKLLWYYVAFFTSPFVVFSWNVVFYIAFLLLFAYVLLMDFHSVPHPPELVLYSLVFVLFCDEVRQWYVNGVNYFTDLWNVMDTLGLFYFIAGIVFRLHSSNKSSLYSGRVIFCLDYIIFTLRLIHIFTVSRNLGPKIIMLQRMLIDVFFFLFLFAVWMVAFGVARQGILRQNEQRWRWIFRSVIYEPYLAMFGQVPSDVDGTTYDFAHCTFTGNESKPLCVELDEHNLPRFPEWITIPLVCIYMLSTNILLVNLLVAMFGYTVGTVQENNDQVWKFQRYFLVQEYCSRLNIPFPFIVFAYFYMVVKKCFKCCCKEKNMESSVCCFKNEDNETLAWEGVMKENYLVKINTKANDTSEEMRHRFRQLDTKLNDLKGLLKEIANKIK

How did the IC50 turn out when `O=C(Nc1cncnc1)N[C@@H](c1ccc(C(F)(F)F)cc1)c1ncccc1C(F)(F)F` [Example 57, (S)-1-(pyrimidin-5-yl)-3-((4-(trifluoro-methyl)-phenyl)(3-(trifluoro-methyl)-pyridin-2-yl)-methyl)urea] was run?
The IC50 was 167 nM.

Which IC50 does the source give for `COc1cccc(CCNC(=O)N[C@@H](c2ccc(C(F)(F)F)cc2)c2ncccc2C(F)(F)F)c1OC` [Example 82, (S)-1-(2,3-dimethoxy-phenethyl)-3-((4-(trifluoro-methyl)-phenyl)(3-(trifluoro-methyl)-pyridin-2-yl)-methyl)urea (2,2,2-trifluoro-acetate)] here?
The IC50 was 559 nM.

`O=C(N[C@@H](c1ccc(C(F)(F)F)c(F)c1)c1ncccc1C(F)(F)F)N1CCOCC1` [Example 167, (S)—N-((3-Fluoro-4-(trifluoromethyl)phenyl)(3-(trifluoromethyl)pyridin-2-yl)methyl)morpholine-4-carboxamide 2,2,2-trifluoroacetate] was tested. Which IC50 did it give?
The IC50 was 328 nM.

For `CSc1ccccc1NC(=O)N[C@@H](c1ccc(C(F)(F)F)cc1)c1ncccc1C(F)(F)F` [Example 137, (S)-1-(2-(methylthio)-phenyl)-3-((4-(trifluoro-methyl)-phenyl)(3-(trifluoro-methyl)-pyridin-2-yl)-methyl)urea (2,2,2-trifluoro-acetate)], which IC50 is on record?
The IC50 was 156 nM.

`O=C(NCc1ccc(Br)cc1)N[C@@H](c1ccc(C(F)(F)F)cc1)c1ncccc1C(F)(F)F` [Example 125, (S)-1-(4-bromobenzyl)-3-((4-(trifluoro-methyl)-phenyl)(3-(trifluoro-methyl)-pyridin-2-yl)-methyl)urea (2,2,2-trifluoro-acetate)] was tested. Which IC50 did it give?
The IC50 was 561 nM.

For `O=C(Nc1cnc2ccccc2c1)N[C@@H](c1ccc(C(F)(F)F)cc1)c1ncccc1C(F)(F)F` [Example 59, (S)-1-(quinolin-3-yl)-3-((4-(trifluoro-methyl)-phenyl)(3-(trifluoro-methyl)-pyridin-2-yl)-methyl)urea], which IC50 is on record?
Its IC50 is 640 nM.

How did the IC50 turn out when `O=C(Nc1cccnc1)N[C@@H](c1cnc2cccc(Cl)c2c1)c1ncccc1C(F)(F)F` [Example 10, (S)-1-((5-chloroquinolin-3-yl)(3-(trifluoro-methyl)-pyridin-2-yl)-methyl)-3-(pyridin-3-yl)-urea] was run?
Its IC50 is 172 nM.

With `O=C(Nc1cccnc1)NC(c1cc(F)cc(Cl)c1)c1ncccc1C(F)(F)F` (stereo not shown) [Example 23, 1-((3-chloro-5-fluoro-phenyl)(3-(trifluoro-methyl)-pyridin-2-yl)-methyl)-3-(pyridin-3-yl)-urea (2,2,2-trifluoro-acetate)] as the compound, how does the IC50 read?
Its IC50 is 255 nM.

How did the IC50 turn out when `O=C(NCC1CCS(=O)(=O)C1)N[C@@H](c1ccc(C(F)(F)F)cc1)c1ncccc1C(F)(F)F` (stereo partly drawn) [Example 64, 1-((3- Sulfonylcyclopentyl)-methyl)-3-((S)-(4-(trifluoro-methyl)-phenyl)(3-(trifluoro-methyl)-pyridin-2-yl)-methyl)urea (2,2,2-trifluoro-acetate)] was run?
Its IC50 is 5650 nM.

Which IC50 does the source give for `N#Cc1ccc(NC(=O)N[C@@H](c2ccc(C(F)(F)F)cc2)c2ncccc2C(F)(F)F)cc1` [Example 46, (S)-1-(4-cyanophenyl)-3-((4-(trifluoro-methyl)-phenyl)(3-(trifluoro-methyl)-pyridin-2-yl)-methyl)urea] here?
Its IC50 is 3560 nM.

Which IC50 does the source give for `C[C@@H](NC(=O)N[C@@H](c1ccc(C(F)(F)F)cc1)c1ncccc1C(F)(F)F)c1ccccc1` [Example 70, 1-((R)-1-phenylethyl)-3-((S)-(4-(trifluoro-methyl)-phenyl)(3-(trifluoro-methyl)-pyridin-2-yl)-methyl)urea (2,2,2-trifluoro-acetate)] here?
Its IC50 is 781 nM.

For `O=C(Nc1cccnc1)N[C@@H](c1cccc(Cl)c1)c1ncccc1C(F)(F)F` [Example 3, (S)-1-((3-chlorophenyl)-(3-(trifluoro-methyl)-pyridin-2-yl)-methyl)-3-(pyridin-3-yl)-urea], which IC50 is on record?
Its IC50 is 172 nM.

With `O=C(Nc1ccc(F)cc1)NC(c1ccccc1)c1ccc(C(F)(F)F)cc1` (stereo not shown) [Example 171, 1-(4-Fluorophenyl)-3-(phenyl(4-(trifluoromethyl)phenyl)-methyl)urea] as the compound, how does the IC50 read?
Its IC50 is 915 nM.
